The nature of data set [1]: Half-life was determined. The data set is classed as ADME. Particulars: human.
Another data set is filed under the species Cavia porcellus. The data set is described as follows: In vitro inhibition of contractions in the electrically stimulated guinea pig ileum. It counts as functional.
Data set [2] concerns Mus musculus. As to the kind of experiment: In vivo analgesic activity in the mouse tail-flick assay following i.c.v. administration. The data set is classed as functional.
The test system of data set [3] is Mus musculus. The data set is described as follows: In vivo analgesic activity in the mouse tail-flick assay following s.c. administration. The data set is classed as functional. Particulars: sc.
Data set [4] can be described thus: Half-life of the compound. The data set is classed as ADME.
Data set [5] relates to Mus musculus. The data set is described as follows: In vivo analgesic potency in mice compared to morphine after s.c. administration. The data set is classed as functional.
Data set [6] deals with Mus musculus. As to the kind of experiment: In vivo analgesic potency in mice compared to morphine after i.c.v. administration. It counts as functional.

For orientation: half-life means the time needed for the level to fall by half in the phase considered. Read a low half-life as fast loss. Broadly, the IC50 is the concentration at which inhibition is half-maximal. Low values mean greater potency, high ones weaker potency.

The structures appear in SMILES notation.

As for `CC(NC(=O)CNC(=O)[C@H](Cc1ccccc1)NC(=O)[C@@H](C)NC(=O)[C@@H](N)Cc1ccc(O)cc1)c1ccccc1` (stereo partly specified), in data set [1], the half-life turned out to be 40 min. In the data set filed under Cavia porcellus, this molecule registered an IC50 of 0.59 nM. The ED50 in the data set with Mus musculus [2] was found to be 7.61 pmol/mouse; in the data set with Mus musculus [3], 13.6 µmol/kg.

On to `CCONC(=O)CC(=O)N[C@H](Cc1ccccc1)NC(=O)[C@@H](C)NC(=O)[C@@H](N)Cc1ccc(O)cc1`, for which the half-life in data set [1] amounted to 30 min. In the data set filed under Cavia porcellus, this molecule gave an IC50 of 320 nM. The same molecule showed an ED50 in the data set with Mus musculus [2] of 1630 pmol/mouse.

As for `CN1CC[C@]23c4c5ccc(O)c4O[C@H]2[C@@H](O)C=C[C@H]3[C@H]1C5` [MORPHINE], the ED50 with Mus musculus [2] came out at 3030 pmol/mouse; in the data set on Mus musculus [3], 10.9 µmol/kg.

`C[C@@H](NC(=O)[C@@H](N)Cc1ccc(O)cc1)C(=O)N[C@@H](Cc1ccccc1)NC(=O)CC(=O)NO` registered a half-life in data set [1] of 30 min. Moreover, inhibition in the data set listed under Cavia porcellus was half-maximal at 330 nM (IC50). Besides, the ED50 in the data set with Mus musculus [2] is 1600 pmol/mouse.

Turning to `C[C@@H](NC(=O)[C@@H](N)Cc1ccc(O)cc1)C(=O)N[C@@H](Cc1ccccc1)NC(=O)CC(=O)NC12CC3CC(CC(C3)C1)C2`, the half-life in data set [1] came to 65 min; in data set [4], 50 min. This molecule also returned an IC50 in the data set filed under Cavia porcellus of 4.45 nM. For the same molecule, the ED50 with Mus musculus [2] came out at 88.4 pmol/mouse; in the data set on Mus musculus [3], 55.5 µmol/kg.

`C[C@@H](NC(=O)[C@@H](N)Cc1ccc(O)cc1)C(=O)N[C@@H](Cc1ccccc1)C(=O)NCC(=O)NO` yielded a half-life in data set [1] of 25 min. In the data set filed under Cavia porcellus, this molecule registered an IC50 of 108 nM. The same molecule yielded an ED50 in the data set with Mus musculus [2] of 140 pmol/mouse.

With `C[C@@H](NC(=O)[C@@H](N)Cc1ccc(O)cc1)C(=O)N(C)[C@@H](Cc1ccccc1)NC(=O)CNC(=O)C12CC3CC(CC(C3)C1)C2`, in data set [1], the half-life turned out to be 55 min. Further, the midpoint of inhibition in the data set filed under Cavia porcellus, the IC50, lay at 19.2 nM. In the data set on Mus musculus [2], this molecule yielded an ED50 of 246 pmol/mouse.

With `CC(C(=O)NCC(=O)N[C@H](Cc1ccccc1)N(C)C(=O)[C@@H](C)NC(=O)[C@@H](N)Cc1ccc(O)cc1)c1ccccc1` (stereo partly specified), the half-life in data set [1] stood at 60 min. In the data set listed under Cavia porcellus, this molecule came in with an IC50 of 31.2 nM. In the data set on Mus musculus [2], this molecule yielded an ED50 of 269 pmol/mouse.

`CCONC(=O)CNC(=O)[C@H](Cc1ccccc1)NC(=O)[C@@H](C)NC(=O)[C@@H](N)Cc1ccc(O)cc1` registered a half-life in data set [1] of 20 min. For the same molecule, the IC50 in the data set listed under Cavia porcellus is 191 nM. Besides, in the data set with Mus musculus [2], the ED50 turned out to be 492 pmol/mouse.

As to `C[C@@H](NC(=O)[C@@H](N)Cc1ccc(O)cc1)C(=O)N[C@@H](Cc1ccccc1)C(=O)NCNC(=O)Cc1ccccc1`, the half-life in data set [1] stood at 60 min; in data set [4], 45 min. Besides, 2.12 nM corresponded to half-maximal inhibition in the data set listed under Cavia porcellus (IC50). For the same molecule, the ED50 in the data set on Mus musculus [2] came to 74.1 pmol/mouse; with Mus musculus [3], 27.8 µmol/kg.

Regarding `C[C@@H](NC(=O)[C@@H](N)Cc1ccc(O)cc1)C(=O)N[C@@H](Cc1ccccc1)C(=O)NCNC=O`, the half-life in data set [1] was found to be 40 min. The same molecule registered an IC50 in the data set filed under Cavia porcellus of 39.2 nM. The molecule further had an ED50 in the data set with Mus musculus [2] of 157 pmol/mouse.

For the molecule `C[C@@H](NC(=O)[C@@H](N)Cc1ccc(O)cc1)C(=O)N[C@@H](Cc1ccccc1)C(=O)NCC(=O)N[C@@H](Cc1ccc(O)cc1)C(=O)N1CCC[C@H]1C(=O)N[C@@H](CO)C(N)=O` [DERMORPHIN], the results for the half-life in data set [1] and in data set [4] were 40 min and 35 min, respectively. Besides, the ED50 in the data set on Mus musculus [2] is 11.4 pmol/mouse; with Mus musculus [3], 2.75 µmol/kg.

Consider `CC(C(=O)NCNC(=O)[C@H](Cc1ccccc1)NC(=O)[C@@H](C)NC(=O)[C@@H](N)Cc1ccc(O)cc1)c1ccccc1` (stereo partly specified), for which the half-life in data set [1] and in data set [4] was 65 min in each case. In addition, the 50% inhibitory concentration (IC50) in the data set filed under Cavia porcellus came to 0.5 nM. Moreover, the ED50 came out at 19.2 pmol/mouse in the data set on Mus musculus [2] and 39.5 µmol/kg in the data set with Mus musculus [3].

For `CC(NC(=O)CC(=O)N[C@H](Cc1ccccc1)NC(=O)[C@@H](C)NC(=O)[C@@H](N)Cc1ccc(O)cc1)c1ccccc1` (stereo partly specified), the half-life in data set [1] is 65 min; in data set [4], 60 min. In addition, the IC50 in the data set filed under Cavia porcellus turned out to be 2.05 nM. Also, the figures for the ED50 in the data set with Mus musculus [2] and in the data set on Mus musculus [3] were 88.6 pmol/mouse and 44.2 µmol/kg, respectively. The molecule also returned a Relative potency in the data set with Mus musculus [5] of 0.24.

As to `C[C@@H](NC(=O)[C@@H](N)Cc1ccc(O)cc1)C(=O)N(C)[C@@H](Cc1ccccc1)NC(=O)CNC(=O)Cc1ccccc1`, the half-life in data set [1] was determined as 45 min. For the same molecule, in the data set listed under Cavia porcellus, the IC50 was found to be 25.2 nM. Also, in the data set on Mus musculus [2], the ED50 was 292 pmol/mouse.

For the molecule `C[C@@H](NC(=O)[C@@H](N)Cc1ccc(O)cc1)C(=O)N[C@@H](Cc1ccccc1)C(=O)NCNC(=O)C12CC3CC(CC(C3)C1)C2`, the half-life amounted to 80 min in data set [1] and 65 min in data set [4]. The IC50 in the data set filed under Cavia porcellus turned out to be 0.31 nM. The ED50 with Mus musculus [2] came to 10.9 pmol/mouse; in the data set with Mus musculus [3] it was 21.7 µmol/kg.

In the case of `C[C@@H](NC(=O)[C@@H](N)Cc1ccc(O)cc1)C(=O)N[C@@H](Cc1ccccc1)C(=O)NCC(=O)NC12CC3CC(CC(C3)C1)C2`, the half-life in data set [1] stood at 35 min. In addition, half-maximal inhibition in the data set listed under Cavia porcellus (IC50) required 2.05 nM. For the same molecule, the ED50 with Mus musculus [2] was determined as 5.12 pmol/mouse; in the data set with Mus musculus [3], 18.8 µmol/kg.

Consider `C[C@@H](NC(=O)[C@@H](N)Cc1ccc(O)cc1)C(=O)N[C@@H](Cc1ccccc1)C(=O)NCC(=O)NCc1ccccc1`, for which the half-life in data set [1] was 30 min. The IC50 in the data set listed under Cavia porcellus amounted to 2.97 nM. The molecule further gave an ED50 in the data set with Mus musculus [2] of 33.1 pmol/mouse.

Molecule `C[C@@H](NC(=O)[C@@H](N)Cc1ccc(O)cc1)C(=O)N[C@@H](Cc1ccccc1)NC(=O)CC(=O)NCc1ccccc1` registered a half-life in data set [1] of 35 min. The molecule further registered an IC50 in the data set filed under Cavia porcellus of 18.2 nM. The molecule also displayed an ED50 in the data set on Mus musculus [2] of 556 pmol/mouse.

In turn, `C[C@@H](NC(=O)[C@@H](N)Cc1ccc(O)cc1)C(=O)N(C)[C@@H](Cc1ccccc1)NC(=O)CNC=O` displayed a half-life in data set [1] of 35 min. In addition, the IC50 in the data set listed under Cavia porcellus was determined as 380 nM. The molecule also gave an ED50 with Mus musculus [2] of 642 pmol/mouse.

`C[C@@H](NC(=O)[C@@H](N)Cc1ccc(O)cc1)C(=O)N[C@@H](Cc1ccccc1)C(=O)NCC(N)=O` gave a half-life in data set [1] of 30 min. In the data set filed under Cavia porcellus, the IC50 turned out to be 45.2 nM. Further, the values for the ED50 in the data set on Mus musculus [2] and in the data set on Mus musculus [3] were 68 pmol/mouse and 68.1 µmol/kg, respectively.

In data set [1], `C[C@@H](NC(=O)[C@@H](N)Cc1ccc(O)cc1)C(=O)N[C@@H](Cc1ccccc1)NC(=O)CC(N)=O` showed a half-life of 35 min. Also, the IC50 in the data set filed under Cavia porcellus is 242 nM. This molecule also showed an ED50 with Mus musculus [2] of 974 pmol/mouse. Further, the Relative potency in the data set on Mus musculus [6] was 3.11.

These data come from ChEMBL document CHEMBL1123014, “Synthesis and pharmacological activity of partially modified retro-inverso dermorphin tetrapeptides” (J Med Chem, 1985).
